Reference: paper PMC9837035 (Nature Communications, 2023)
“And” between values parts separate entries of the source, which are not always exact repeats. Identical values can stand only once. Like-named read-outs stand apart in the source and are kept apart here.

Key:
[1] = target: T1, PRDM9 (Homo sapiens, UniProt Q9NQV7); assay: Radioisotope-based methyltransferase assay (selectivity); format: biochemical; conditions: read-out: IC50
T1 construct: purchased Reaction Biology

[2] = Mouse acute toxicity assay, body weight; format: in vivo, mice
Experimental: All animal studies were approved by the Institutional Committee for Animal Experiments of the Institute of Microbial Chemistry, and were performed in accordance with relevant guidelines and regulations to minimize animal suffering. Four-week-old female ICR mice were purchased from Charles River Breeding Laboratories (Yokohama, Japan) and maintained in a specific pathogen-free barrier facility. […] Samples were dissolved in saline containing 10% DMSO and 1% Tween 80 and injected intravenously into mice.

[3] = tested on: Salmonella typhimurium TA98; assay: Ames test, TA98
Experimental: The Salmonella mutagenicity assay was performed by pre-incubating the test compounds for 20 min with Salmonella typhimurium strains TA98 and TA100, with and without metabolic activation (S9 mixture).
After this time 2 mL of top agar was added to the mixture and poured on to a plate containing minimum agar. The plates were incubated at 37 °C for 49 h and the His ± revertant colonies were counted manually and automatically by a colony counter (Colony analyzer CA-11D systems, System science Co.,Ltd.). The influence of metabolic activation was tested by adding 500 μL of 10% S9 mixture. All experiments were performed in duplicate. […] DMSO served as the negative control (100 μL/plate). The mutagenic index (MI, the average number of revertants per plate divided by the average number of revertants per plate from the negative control) was also calculated for each dose. A sample was considered positive when the MI was equal to or greater than 2 for at least one of the tested doses.

[4] = Liver microsomal stability assay, dog; format: in vitro ADME; conditions: for Metabolic stability, % remaining of RK-701: Dog
Experimental: [Human/Rat] Liver microsome analyses (human, rat) were performed in triplicate by the Sumika Chemical Analysis Service (SCAS) according to the standard protocols. […] [Dog/Monkey] Liver microsome analyses (dog, monkey) were performed in duplicate by RIKEN according to the same protocols as SCAS.

[5] = target: DNMT1 (Homo sapiens, UniProt P26358); assay: biochemical
[6] = target: EZH2 (Y641F) (Homo sapiens, UniProt Q15910, Y641F); assay: Radioisotope-based methyltransferase assay (selectivity)

T1 sequence (Q9NQV7 whole entry): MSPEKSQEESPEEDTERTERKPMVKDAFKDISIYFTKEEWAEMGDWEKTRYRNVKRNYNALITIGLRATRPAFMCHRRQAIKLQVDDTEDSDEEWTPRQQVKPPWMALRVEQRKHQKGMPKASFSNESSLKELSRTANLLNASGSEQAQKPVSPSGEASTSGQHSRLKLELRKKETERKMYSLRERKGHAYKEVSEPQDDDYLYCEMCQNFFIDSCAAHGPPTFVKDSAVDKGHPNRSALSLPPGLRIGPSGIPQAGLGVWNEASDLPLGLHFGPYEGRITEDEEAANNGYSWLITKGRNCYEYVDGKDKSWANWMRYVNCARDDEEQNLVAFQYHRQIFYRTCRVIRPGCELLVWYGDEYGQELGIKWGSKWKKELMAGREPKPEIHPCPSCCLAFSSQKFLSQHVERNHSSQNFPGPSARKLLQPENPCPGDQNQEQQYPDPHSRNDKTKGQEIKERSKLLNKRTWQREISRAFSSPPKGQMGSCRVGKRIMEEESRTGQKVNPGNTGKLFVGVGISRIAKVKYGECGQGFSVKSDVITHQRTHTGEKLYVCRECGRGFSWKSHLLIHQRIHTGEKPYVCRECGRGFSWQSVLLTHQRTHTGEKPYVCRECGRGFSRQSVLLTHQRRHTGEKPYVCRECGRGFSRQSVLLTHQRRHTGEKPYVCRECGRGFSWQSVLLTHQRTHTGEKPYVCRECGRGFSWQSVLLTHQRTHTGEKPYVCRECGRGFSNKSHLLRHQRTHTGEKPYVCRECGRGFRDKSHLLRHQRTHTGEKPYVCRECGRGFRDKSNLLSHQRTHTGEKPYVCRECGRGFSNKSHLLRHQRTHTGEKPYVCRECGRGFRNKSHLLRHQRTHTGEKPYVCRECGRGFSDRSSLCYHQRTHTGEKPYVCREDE
DNMT1, sequence (P26358 whole entry): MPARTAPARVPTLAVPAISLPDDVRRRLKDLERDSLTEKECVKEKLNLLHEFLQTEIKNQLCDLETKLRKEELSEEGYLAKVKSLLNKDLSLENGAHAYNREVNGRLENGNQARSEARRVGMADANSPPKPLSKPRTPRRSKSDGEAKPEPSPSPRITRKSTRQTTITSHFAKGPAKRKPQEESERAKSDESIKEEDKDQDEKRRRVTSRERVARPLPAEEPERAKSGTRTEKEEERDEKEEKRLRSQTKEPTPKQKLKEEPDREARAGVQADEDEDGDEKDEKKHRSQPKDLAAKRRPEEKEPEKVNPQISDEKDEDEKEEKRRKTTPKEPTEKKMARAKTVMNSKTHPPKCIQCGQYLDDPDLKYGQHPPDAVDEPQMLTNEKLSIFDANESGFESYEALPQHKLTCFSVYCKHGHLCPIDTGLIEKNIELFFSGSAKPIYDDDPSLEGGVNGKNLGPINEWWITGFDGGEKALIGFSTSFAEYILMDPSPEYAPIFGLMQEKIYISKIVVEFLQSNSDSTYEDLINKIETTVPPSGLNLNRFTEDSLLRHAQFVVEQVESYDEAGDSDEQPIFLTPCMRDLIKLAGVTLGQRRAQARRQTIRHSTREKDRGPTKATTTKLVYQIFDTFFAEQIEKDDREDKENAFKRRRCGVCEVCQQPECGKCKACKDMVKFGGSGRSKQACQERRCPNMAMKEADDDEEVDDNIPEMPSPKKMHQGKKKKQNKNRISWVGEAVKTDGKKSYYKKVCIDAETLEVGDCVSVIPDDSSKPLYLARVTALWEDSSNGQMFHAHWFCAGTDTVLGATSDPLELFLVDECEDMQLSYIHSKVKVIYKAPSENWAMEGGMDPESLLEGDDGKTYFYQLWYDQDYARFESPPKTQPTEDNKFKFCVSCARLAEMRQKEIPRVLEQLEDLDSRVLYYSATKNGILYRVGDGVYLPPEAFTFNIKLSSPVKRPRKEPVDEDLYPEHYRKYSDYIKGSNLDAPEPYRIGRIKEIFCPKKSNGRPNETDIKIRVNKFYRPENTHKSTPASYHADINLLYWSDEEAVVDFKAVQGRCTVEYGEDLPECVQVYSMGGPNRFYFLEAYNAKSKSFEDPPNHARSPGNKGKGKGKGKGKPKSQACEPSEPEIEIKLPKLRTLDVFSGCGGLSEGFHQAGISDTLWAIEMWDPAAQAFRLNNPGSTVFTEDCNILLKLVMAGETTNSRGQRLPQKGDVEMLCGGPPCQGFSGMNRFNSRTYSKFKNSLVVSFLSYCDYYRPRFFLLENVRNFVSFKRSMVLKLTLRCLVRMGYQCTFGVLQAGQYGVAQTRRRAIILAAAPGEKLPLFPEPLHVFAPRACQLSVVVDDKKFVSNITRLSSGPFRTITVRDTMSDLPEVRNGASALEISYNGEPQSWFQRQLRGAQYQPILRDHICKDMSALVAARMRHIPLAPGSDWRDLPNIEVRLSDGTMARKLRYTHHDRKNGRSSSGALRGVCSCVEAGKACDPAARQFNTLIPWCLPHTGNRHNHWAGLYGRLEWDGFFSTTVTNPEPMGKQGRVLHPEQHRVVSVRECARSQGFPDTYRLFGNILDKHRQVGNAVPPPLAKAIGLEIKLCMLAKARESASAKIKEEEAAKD

SMILES: Cc1c(C(=O)NC(CCC2CC2)C(=O)Nc2ccc(C#N)cc2)[nH]c2c1C(=O)CC(C)(C)C2 (stereo not shown) [RK-701]
- IC50 ([1]; PRDM9, 1 μM SAM): > 100 µM
- IC50 ([1]; PRDM9, RK-701 in duplicate): > 100 µM
- The body weight of individual mice ([2]; 12.5 mg/kg, Day0): 24.94 g
- The body weight of individual mice ([2]; 12.5 mg/kg, Day1): 24.39 g
- The body weight of individual mice ([2]; 12.5 mg/kg, Day3): 26.32 g and 24.79 g
- The body weight of individual mice ([2]; 12.5 mg/kg, Day5): 26.12 g and 25.27 g and 26.24 g
- The body weight of individual mice ([2]; 12.5 mg/kg, Day7): 26.84 g and 25.44 g and 25.63 g
- The body weight of individual mice ([2]; 12.5 mg/kg, Day9): 26.98 g and 26.32 g and 26.65 g
- The body weight of individual mice ([2]; 12.5 mg/kg, Day11): 27.95 g and 26.07 g and 25.28 g
- The body weight of individual mice ([2]; 12.5 mg/kg, Day14): 27.71 g and 26.81 g and 27.50 g
- The body weight of individual mice ([2]; 25 mg/kg, Day0): 23.49 g and 24.32 g and 24.36 g
- The body weight of individual mice ([2]; 25 mg/kg, Day1): 23.24 g and 25.05 g and 21.93 g
- The body weight of individual mice ([2]; 25 mg/kg, Day2): 24.39 g and 26.13 g and 23.16 g
- The body weight of individual mice ([2]; 25 mg/kg, Day3): 24.09 g and 26.66 g and 23.50 g
- The body weight of individual mice ([2]; 25 mg/kg, Day4): 24.79 g and 27.09 g and 24.50 g
- The body weight of individual mice ([2]; 25 mg/kg, Day5): 25.11 g and 26.53 g and 25.43 g
- The body weight of individual mice ([2]; 25 mg/kg, Day7): 25.92 g and 26.25 g and 25.57 g
- The body weight of individual mice ([2]; 25 mg/kg, Day9): 25.69 g and 26.57 g and 26.31 g
- The body weight of individual mice ([2]; 25 mg/kg, Day11): 26.68 g and 27.09 g and 27.51 g
- The body weight of individual mice ([2]; 25 mg/kg, Day14): 26.24 g and 26.26 g and 28.11 g
- The body weight of individual mice ([2]; 50 mg/kg, Day0): 22.18 g and 23.36 g and 23.10 g
- The body weight of individual mice ([2]; 50 mg/kg, Day1): 22.71 g and 22.55 g and 24.93 g
- The body weight of individual mice ([2]; 50 mg/kg, Day2): 23.39 g and 22.67 g and 25.00 g
- The body weight of individual mice ([2]; 50 mg/kg, Day3): 24.41 g and 22.89 g and 25.00 g
- The body weight of individual mice ([2]; 50 mg/kg, Day4): 24.33 g and 23.75 g and 26.48 g
- The body weight of individual mice ([2]; 50 mg/kg, Day5): 24.37 g and 24.57 g and 26.83 g
- The body weight of individual mice ([2]; 50 mg/kg, Day7): 25.33 g and 23.96 g and 27.23 g
- The body weight of individual mice ([2]; 50 mg/kg, Day9): 25.95 g and 24.94 g and 26.92 g
- The body weight of individual mice ([2]; 50 mg/kg, Day11): 26.83 g and 25.42 g and 28.13 g
- The body weight of individual mice ([2]; 50 mg/kg, Day14): 27.45 g and 26.37 g and 28.85 g
- The body weight of individual mice ([2]; 100 mg/kg, Day0): 22.92 g and 23.08 g and 22.86 g
- The body weight of individual mice ([2]; 100 mg/kg, Day1): 21.12 g and 23.93 g and 21.40 g
- The body weight of individual mice ([2]; 100 mg/kg, Day2): 22.69 g and 24.09 g and 22.95 g
- The body weight of individual mice ([2]; 100 mg/kg, Day3): 23.07 g
- acute toxicity, body weight ([2]; mouse, in vivo, iv): no significant body weight loss
- Number of reverants/plate ([3]; TA98, + S9, frameshift mutation, 4.88 μg/plate): 28
- Number of reverants/plate ([3]; TA98, + S9, frameshift mutation, 19.5 μg/plate): 29 and 28
- Number of reverants/plate ([3]; TA98, + S9, frameshift mutation, 78.1 μg/plate): 31 and 30
- Number of reverants/plate ([3]; TA98, + S9, frameshift mutation, 313 μg/plate): 28
- Number of reverants/plate ([3]; TA98, + S9, frameshift mutation, 1250* μg/plate): 32 and 28
- Number of reverants/plate ([3]; TA98, + S9, frameshift mutation, 2500* μg/plate): 28
- Number of reverants/plate ([3]; TA98, + S9, frameshift mutation, 5000* μg/plate): 28 and 23
- Number of revertants/plate ([3]; TA98, +S9, 4.88 μg/plate): 28
- Number of revertants/plate ([3]; TA98, +S9, 19.5 μg/plate): 29
- Number of revertants/plate ([3]; TA98, +S9, 78.1 μg/plate): 31
- Number of revertants/plate ([3]; TA98, +S9, 313 μg/plate): 28
- Number of revertants/plate ([3]; TA98, +S9, 1250 μg/plate, insoluble material): 30
- Number of revertants/plate ([3]; TA98, +S9, 2500 μg/plate, insoluble material): 28
- Number of revertants/plate ([3]; TA98, +S9, 5000 μg/plate, insoluble material): 26
- Number of reverants/plate ([3]; TA98, - S9, frameshift mutation, 4.88 μg/plate): 13 and 20
- Number of reverants/plate ([3]; TA98, - S9, frameshift mutation, 19.5 μg/plate): 12 and 13
- Number of reverants/plate ([3]; TA98, - S9, frameshift mutation, 78.1 μg/plate): 14 and 20
- Number of reverants/plate ([3]; TA98, - S9, frameshift mutation, 313 μg/plate): 14 and 12
- Number of reverants/plate ([3]; TA98, - S9, frameshift mutation, 1250* μg/plate): 11 and 12
- Number of reverants/plate ([3]; TA98, - S9, frameshift mutation, 2500* μg/plate): 11 and 12
- Number of reverants/plate ([3]; TA98, - S9, frameshift mutation, 5000* μg/plate): 13 and 16
- Number of revertants/plate ([3]; TA98, -S9, 4.88 μg/plate): 17
- Number of revertants/plate ([3]; TA98, -S9, 19.5 μg/plate): 13
- Number of revertants/plate ([3]; TA98, -S9, 78.1 μg/plate): 17
- Number of revertants/plate ([3]; TA98, -S9, 313 μg/plate): 13
- Number of revertants/plate ([3]; TA98, -S9, 1250 μg/plate, insoluble material): 12
- Number of revertants/plate ([3]; TA98, -S9, 2500 μg/plate, insoluble material): 12
- Number of revertants/plate ([3]; TA98, -S9, 5000 μg/plate, insoluble material): 15
- mutagenicity ([3]; TA98, regardless of metabolic activation): no mutagenicity
- Metabolic stability, % remaining of RK-701 ([4]; Time 5, replicate values): 67.6%
- Metabolic stability, % remaining of RK-701 ([4]; Time 10, replicate values): 70.7% and 62.6%
- Metabolic stability, % remaining of RK-701 ([4]; Time 20, replicate values): 60.6% and 44.6%
- Metabolic stability, % remaining of RK-701 ([4]; Time 30, replicate values): 51.3% and 40.3%
- Metabolic stability, % remaining of RK-701 ([4]; Time 45, replicate values): 47% and 30%
- Metabolic stability, % remaining of RK-701 ([4]; Time 60, replicate values): 37.6% and 29.4%
- remaining at 5 min, 1 µM ([4]; dog, liver microsomes, Metabolic stability, % remaining of RK-701, Dog, Time 5, replicate values): 72.6%
- remaining at 10 min, 1 µM ([4]; dog, liver microsomes, Metabolic stability, % remaining of RK-701, Dog, Time 10, replicate values): 57%
- remaining at 20 min, 1 µM ([4]; dog, liver microsomes, Metabolic stability, % remaining of RK-701, Dog, Time 20, replicate values): 53.4%
- remaining at 30 min, 1 µM ([4]; dog, liver microsomes, Metabolic stability, % remaining of RK-701, Dog, Time 30, replicate values): 48.4%
- remaining at 45 min, 1 µM ([4]; dog, liver microsomes, Metabolic stability, % remaining of RK-701, Dog, Time 45, replicate values): 37.1%
- remaining at 60 min, 1 µM ([4]; dog, liver microsomes, Metabolic stability, % remaining of RK-701, Dog, Time 60, replicate values): 30.9%
- microsomal CLint at 1 μM ([4]; dog, liver microsomes, Dug, read-out: Metabolic stability in liver microsomes CLint): 28 µL/min/mg
- IC50 [5]: > 100 µM
- IC50 [6]: > 100 µM
